Laboratory results as given in patent US20140315975A1, “APOPTOSIS-INDUCING AGENT” (NITTO DENKO CORPORATION, priority 2011, published 2014).
Residues, ends and D or L forms follow the SMILES beside them. *: point of attachment. Cbz = O=C(OCc1ccccc1)*

Tests used:
Type in all cases: cell-based
M7609 cells [1] = assay: Autophagy-positive cells in GST-π knockdown cells with autophagy inhibitor (LC3 immunofluorescence); settings: GST-π KD M7609 cells + 3-MA (FIG. 16)
Protocol: (§1) Transfection of GST-π siRNA was carried out in accordance with the procedure of Example 1 (2), the medium was then replaced with an antibiotic-free medium, and incubation was carried out for 3 hours. Cells were plated on a cover slip placed in a 35 mm plastic tissue culture dish, the autophagy inhibitor 3-methyl adenine (3-MA, SIGMA) was added so as to give 1 or 5 mM, and following this culturing was carried out for a predetermined time.
The cells cultured in (1) were subjected to immunofluorescence staining using anti-LC3 antibody in the same way as for Example 3 (1).

M7609 cells [2] = assay: TUNEL staining of GST-π knockdown cells with autophagy inhibitor; settings: GST-π siRNA + 1 mM or 5 mM 3-MA
Protocol: as §1
The cells cultured in (1) were subjected to TUNEL staining in the same way as for Example 3 (4).

p-Raf-1 (Ser338) = assay: Effect of proteasome inhibitor on Raf-1 expression under GST-π knockdown; settings: 5 μM MG132 for 4 hours versus DMSO (FIG. 4)
Protocol: Culturing of M7609 cells and transfection with GST-π siRNA were carried out in accordance with the procedures of Example 1 (1) and (2). On the 2nd day after GST-π siRNA transfection culturing was carried out for 16 hours in a serum-free medium. After treating with 5 μM MG132 for 4 hours, a cell extract was collected. As a control for the MG132 treatment, treatment with 0.05% DMSO was carried out in the same manner. The cell extract thus obtained was subjected to quantitative protein analysis using a Micro BCA Protein Assay Kit (Scramble siRNA-DMSO treated group: 3.36 μg/μL, Scramble siRNA-MG132 treated group: 3.16 μg/μL, GST-π siRNA-DMSO treated group: 3.12 μg/μL, GST-π siRNA-MG132 treated group: 3.16 μg/μL). 20 μg of the cell extract was subjected to SDS-PAGE, and then western blot analysis was carried out in the same way as for Example 1 (3) using an anti-p-Raf-1 (Ser338) antibody and an anti-Raf-1 antibody.

p-EGFR (Tyr1068) = assay: Effect of proteasome inhibitor on p-EGFR expression under GST-π knockdown; settings: GST-π KD cells, 5 μM MG132 for 2 hours (FIG. 12)
Protocol: Culturing of M7609 cells and transfection with GST-π siRNA were carried out in accordance with the procedures of Example 1 (1) and (2). On the 2nd day after transfection with GST-π siRNA, the cells were cultured in serum-free medium for 16 hours. After treating with 5 μM MG132 for 2 hours, a cell extract was collected. As a control for the MG132 treatment, treatment with 0.05% DMSO was carried out in the same manner. The cell extract thus obtained was subjected to quantitative protein analysis using a Micro BCA Protein Assay Kit (Scramble siRNA-DMSO treated group: 11.98 μg/μL, Scramble siRNA-MG132 treated group: 12.29 μg/μL, GST-π siRNA-DMSO treated group: 8.91 μg/μL, GST-π siRNA-MG132 treated group: 9.24 μg/μL). After 80 μg of the cell extract was subjected to SDS-PAGE, a western blot analysis was carried out using anti-p-EGFR (Tyr1068) antibody and anti-EGFR antibody.

GST-π = assay: Western blot analysis of GST-π knockdown; settings: M7609 cells, siRNA transfection, western blot (FIG. 1a)
Protocol: On the day before transfection, M7609 cells were plated on a 100 mm plastic tissue culture dish using 10% FBS-containing RPMI-1640 medium containing no antibiotic so as to give 1×10^6 cells/10 mL. 600 pmol of GST-π siRNA (SEQ ID No: 1: […], siRNA ID#2385, Ambion) was added to 1 mL of Opti-MEM I Reduced Serum Medium (GIBCO) and mixed gently. Subsequently, 35 μL of Lipofectamine RNAiMAX (Invitrogen) was diluted in 1 mL of Opti-MEM I Reduced Serum Medium and mixed gently. The diluted GST-π siRNA and the diluted Lipofectamine RNAiMAX were combined and gently mixed, and then incubated at room temperature for 10 min. During this time, the medium was replaced with 10 mL of Opti-MEM I Reduced Serum Medium. After the 10 min. incubation, the complex between GST-π siRNA and Lipofectamine RNAiMAX was added to the cells and incubated at 37° C. under an atmosphere containing 5% CO2. After 5 hours incubation, it was replaced with 10 mL of 10% FBS-containing RPMI-1640 medium containing no antibiotic. […] On the 1st, 2nd, 3rd, and 4th days after transfection with GST-π siRNA, the number of cells was counted, and knockdown of GST-π was examined. Knockdown of GST-π was analyzed by a western blot method as described below.
Western blot analysis of GST-π knockdown was carried out using cells harvested at above-mentioned each point of time after transfection with GST-π siRNA. […] The cell extract thus obtained was subjected to quantitative protein analysis using a Micro BCA Protein Assay Kit (Thermo SCIENTIFIC) (GST-π siRNA transfectant: 4.35 μg/μL, Scramble siRNA transfectant: 4.56 μg/μL). […] A reaction with a chemiluminescent substrate was then carried out at room temperature for 1 min., and then this chemiluminescence was detected using an X-ray film. Washing between operations was carried out three times by shaking for 5 min using PBS-T. Furthermore, after transfection with siRNA, plating on a 60 mm plastic tissue culture dish was carried out to give 1.0×10^5 cells/5 mL, and the total cell count in the dish was measured using a hemocytometer up to the 4th day.

LC3 = assay: Autophagy induction by LC3 western blotting; settings: M7609 cells, western blot with anti-LC3 antibody (FIG. 8)
Protocol: Induction of autophagy in GST-π knockdown cells was further analyzed by a western blot analysis of LC3. GST-π knockdown cells obtained by the procedure of Example 1 (2) were plated on a cover slip placed in a 35 mm plastic tissue culture dish so as to give 1×10^5 cells/2 mL. After incubating for a predetermined time, a cell extract was collected and subjected to a western blot analysis. A reaction with a transfer membrane was carried out at 4° C. for 16 hours using anti-LC3B antibody (SIGMA) as a primary antibody. Detection of LC3 molecules was carried out using a chemoluminescent reagent after a reaction with HRP-labeled secondary antibody. Whether or not autophagy was induced was evaluated by a shift of LC3 from type I (18 kDa) to type II (16 kDa).

Cn1cnc(N)c2ncnc1-2 [3-MA, 3-methyladenine]
autophagy increased by knockdown of GST-π (proportion of autophagy-positive cells) (M7609 cells [1]): suppressed
apoptosis-positive cells (TUNEL stained images) (M7609 cells [2]; 2nd to 4th day (FIG. 17 versus FIG. 9)): increased markedly
induction of apoptosis (percentage apoptosis over time) (M7609 cells [2]; dose-dependent (FIG. 18)): further induced

CC(C)C[C@@H](C=O)NC(=O)[C@H](CC(C)C)NC(=O)[C@H](CC(C)C)NC(=O)OCc1ccccc1 [MG132] (Cbz-Leu-Leu-Leu-aldehyde)
abundance of phosphorylated Raf protein (p-Raf-1 (S338)) (p-Raf-1 (Ser338); GST-π siRNA transfectant): increased
abundance of phosphorylated Raf protein (p-Raf-1 (S338)) (p-Raf-1 (Ser338); Scramble siRNA transfectant): no change
expression level of p-EGFR (p-EGFR (Tyr1068)): recovered

Scramble siRNA: control Scramble siRNA (SEQ ID No: 2: CGAUUCGCUAGACCGGCUUCAUUGCAG, Hokkaido System Science Co., Ltd.) (chemistry not given here) [reference compound]
expression of GST-π (GST-π): not suppressed
expression of type I and type II LC3 (LC3): low
